Tested on: NCI-H2122
Assay: Cytotoxicity against human NCI-H2122 cells incubated for 4 days
Type: functional, cell-based
Conditions: NCI-H2122, 96 h

Going from `COc1ccc(CCNC(=O)C(=O)Nc2ccc(C(=O)c3ccc(OC)cc3)cc2)cc1` to `COc1ccc(CCNC(=O)C(=O)Nc2ccc(C(=O)c3ccc(O)cc3)cc2)cc1`, the EC50 rises from 81 nM to greater than 50000 nM. The first is the more potent here.

`COc1ccc(CCNC(=O)c2nc3ccccc3c(=O)[nH]2)cc1` and `COc1ccc(CCNC(=O)c2nc3ccccc3[nH]2)cc1` cannot be ordered by EC50: greater than 50000 nM for the first, greater than 50000 nM for the second.

First: COc1ccc(CCNC(=O)C(=O)Nc2ccc(C#N)cc2)cc1
Second: COc1ccc(CCNC(=O)C(=O)Nc2ccc(F)cc2)cc1
The EC50 of the first is 2.4-fold higher: 710 nM for the first, 290 nM for the second.

`COc1ccc(CCNC(=O)C(=O)NC2CCCC2)cc1` and `COc1ccc(CCNC(=O)C(=O)NC2CCCCC2)cc1` cannot be ordered by EC50: greater than 50000 nM for the first, greater than 50000 nM for the second.

Going from `COc1ccc(CCNC(=O)C(=O)Nc2ccc(OC)c(C)c2)cc1` to `COc1ccc(CCNC(=O)C(=O)Nc2ccc(C)c(F)c2)cc1`, the EC50 falls from 810 nM to 310 nM (2.6-fold).

`COc1ccc(CCNC(=O)C(=O)Nc2cc(F)cc(Cl)c2)cc1` and `COc1ccc(CCNC(=O)C(=O)Nc2cc(Cl)cc(Cl)c2)cc1` cannot be ordered by EC50: greater than 50000 nM for the first, greater than 50000 nM for the second.

Compared with `COc1ccc(CCNC(=O)NC(=O)c2cccc(Br)c2)cc1`, `COc1ccc(CCNC(=O)NC(=O)c2ccc(Br)cc2)cc1` is lower in EC50: greater than 50000 nM for the first, 160 nM for the second. The second is the more potent here.

Compared with `COc1ccc(CCN(C)C(=O)NC(=O)c2ccc(C(=O)c3ccccc3)cc2)cc1`, `COc1ccc(CCN(C)C(=O)N(C)C(=O)c2ccc(C(=O)c3ccccc3)cc2)cc1` is 1.8-fold higher in EC50: 8700 nM for the first, 16000 nM for the second.

Compared with `COc1ccc(CCNC(=O)C(=O)Nc2ccc(Cl)c([N+](=O)[O-])c2)cc1`, `COc1ccc(CCNC(=O)C(=O)Nc2ccc(Cl)c(F)c2)cc1` is 4.5-fold lower in EC50: 1300 nM for the first, 290 nM for the second.

`COc1ccc(CCNC(=O)C(=O)N2CCCCC2)cc1` and `COc1ccc(CCNC(=O)C(=O)O)cc1` cannot be ordered by EC50: greater than 50000 nM for the first, greater than 50000 nM for the second.

First: COc1ccc(CCNC(=O)C(=O)Nc2ccc(Cl)c(C(F)(F)F)c2)cc1
Second: COc1ccc(CCNC(=O)C(=O)Nc2cc(Cl)cc(C(F)(F)F)c2)cc1
The EC50 of the first is lower: 1400 nM for the first, greater than 50000 nM for the second. The first is the more potent here.

`COc1ccc(CCNC(=O)C(=O)Nc2ccc(Cl)cn2)cc1` and `COc1ccc(CCNC(=O)C(=O)Nc2ccc(Cl)nc2)cc1` are within 1.5-fold of each other in EC50: 350 nM for the first, 440 nM for the second.

Going from `COc1ccc(CCNC(=O)NC(=O)c2ccc(C(N)c3ccccc3)cc2)cc1` (stereo not drawn) to `COc1ccc(CCNC(=O)NC(=O)c2ccc(C(O)c3ccccc3)cc2)cc1` (stereo not drawn), the EC50 falls from 320 nM to 97 nM (3.3-fold).

Compared with `COc1ccc(CCNC(=O)NC(=O)c2cccc(-c3ccccc3)c2)cc1`, `COc1ccc(CCNC(=O)NC(=O)c2ccc(Cl)cc2)cc1` is lower in EC50: greater than 50000 nM for the first, 150 nM for the second. The second is the more potent here.

`COc1ccc(CCNC(=O)c2ccc(Cl)cc2)cc1` and `COc1ccc(CCCNC(=O)c2ccc(Cl)cc2)cc1` cannot be ordered by EC50: greater than 50000 nM for the first, greater than 50000 nM for the second.

`COc1ccc(CCNC(=O)NC(=O)c2ccc(C(=O)N3CCOCC3)cc2)cc1` and `COc1ccc(CCNC(=O)NC(=O)c2ccc(C(=O)O)cc2)cc1` cannot be ordered by EC50: greater than 50000 nM for the first, greater than 50000 nM for the second.

First: COc1ccc(CCNC(=O)C(=O)NCc2ccc(Cl)cc2)cc1
Second: COc1ccc(CCNC(=O)C(=O)Nc2cccc(Cl)c2)cc1
The EC50 of the first is higher: greater than 50000 nM for the first, 380 nM for the second. The second is the more potent here.

Compared with `O=C(NCCc1ccccc1)C(=O)Nc1ccc(Cl)cc1`, `O=C(NCCc1ccccc1O)C(=O)Nc1ccc(Cl)cc1` is lower in EC50: greater than 50000 nM for the first, 1720 nM for the second. The second is the more potent here.

`COc1ccccc1CCNC(=O)C(=O)Nc1ccc(Cl)cc1` and `Cc1ccc(CCNC(=O)C(=O)Nc2ccc(Cl)cc2)cc1` cannot be ordered by EC50: greater than 50000 nM for the first, greater than 50000 nM for the second.

`COc1ccc(CCNC(=O)C(=O)NC2CCC2)cc1` and `COc1ccc(CCNC(=O)C(=O)Nc2cccc(F)n2)cc1` cannot be ordered by EC50: greater than 50000 nM for the first, greater than 50000 nM for the second.

Compared with `COc1ccc(CCNC(=O)CNc2ccc(Cl)cc2)cc1`, `COc1ccc(CCNC(=O)C(=O)Nc2ccc(Cl)c(C#N)c2)cc1` is lower in EC50: greater than 50000 nM for the first, 400 nM for the second.

First: COC(=O)c1ccc(C(=O)NC(=O)NCCc2ccc(OC)cc2)cc1
Second: COc1ccc(CCNC(=O)C(=O)Nc2ccc(C(=O)c3ccccc3)cc2)cc1
The EC50 of the first is higher: greater than 50000 nM for the first, 85 nM for the second. The second is the more potent here.

`COc1ccc(CCNC(=O)C(=O)Nc2ccccc2F)cc1` and `COc1ccc(CCNC(=O)C(=O)N2Cc3ccccc3C2)cc1` cannot be ordered by EC50: greater than 50000 nM for the first, greater than 50000 nM for the second.

`COc1ccc(CCNC(=O)c2ccc3ccccc3c2O)cc1` and `COc1ccc(CCNC(=O)c2nc3ccccc3o2)cc1` are within 1.5-fold of each other in EC50: 36000 nM for the first, 30000 nM for the second.

— ChEMBL document CHEMBL4251748, “Discovery of Cytochrome P450 4F11 Activated Inhibitors of Stearoyl Coenzyme A Desaturase” (J Med Chem, 2018)
